Test results as given in PubChem BioAssay (NCI).
Several values for one entry are separate records, joined by “and”; a condition that tells them apart may be missing. Identical values can stand only once.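 Growth conditions: 96-well plates. Treatment: test compound, 48 hours, 5 concentrations. Analysis: linear interpolation between bracketing concentrations; unreached endpoints set to highest concentration. GI50 = concentration required for 50% inhibition of growth. TGI: total growth inhibition.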

Assays:
Assay in all cases: growth of human tumour cells (NCI), 48 h
NCI-H23 lung = tested on: NCI-H23 lung
EKVX NSCLC = tested on: EKVX NSCLC
OVCAR-4 ovarian = tested on: OVCAR-4 ovarian
RPMI-8226 leukemia = tested on: RPMI-8226 leukemia
RXF 393 renal = tested on: RXF 393 renal
HL-60(TB) leukemia = tested on: HL-60(TB) leukemia
DU-145 prostate = tested on: DU-145 prostate
COLO 205 colon = tested on: COLO 205 colon
786-0 renal = tested on: 786-0 renal
SK-OV-3 ovarian = tested on: SK-OV-3 ovarian
NCI-H460 lung = tested on: NCI-H460 lung
SNB-19 CNS = tested on: SNB-19 CNS
SK-MEL-2 melanoma = tested on: SK-MEL-2 melanoma
UACC-62 melanoma = tested on: UACC-62 melanoma
PC-3 prostate = tested on: PC-3 prostate

Row | SMILES | TGI (NCI-H23 lung) | TGI (EKVX NSCLC) | TGI (OVCAR-4 ovarian) [µM] | TGI (RPMI-8226 leukemia) [µM] | TGI (RXF 393 renal) [µM] | TGI (HL-60(TB) leukemia) | TGI (DU-145 prostate) | TGI (COLO 205 colon) | TGI (786-0 renal) | TGI (SK-OV-3 ovarian) | TGI (NCI-H460 lung) | TGI (SNB-19 CNS) [µM] | TGI (SK-MEL-2 melanoma) [µM] | TGI (UACC-62 melanoma) | TGI (PC-3 prostate) | GI50 (OVCAR-4 ovarian) | GI50 (RPMI-8226 leukemia) [µM] | GI50 (SK-OV-3 ovarian) | GI50 (EKVX NSCLC) [µM] | GI50 (UACC-62 melanoma) [µM]
1 | CCN1CCC(O)(c2ccc([N+](=O)[O-])cc2)C(C(=O)c2ccc([N+](=O)[O-])cc2)C1 (stereo not given) | 36.4 µM | 37.6 µM | 83.9 | 17.8 | 30 | > 100 µM | 32.3 µM | 28.1 µM | 29.9 µM | > 100 µM | 48.7 µM | > 100 | > 100 | 33 µM | > 100 µM |  |  |  |  | 
2 | CCOc1cnc(C(O)(c2ccccc2)c2ccccc2)o1 | > 100 µM | > 100 µM | > 100 | > 100 | > 100 | > 100 µM | > 100 µM | > 100 µM | > 100 µM | > 100 µM | > 100 µM | > 100 | > 100 | > 100 µM | > 100 µM |  |  |  |  | 
3 | COc1cc([C@@H]2c3cc4c(cc3[C@@H](Nc3ccc(NC(=O)c5cc([N+](=O)[O-])cn5C)cc3)[C@H]3COC(=O)[C@H]23)OCO4)cc(OC)c1O | 4.04 µM and 0.546 µM | > 100 µM | > 100 | 0.116 | > 100 | 0.201 µM and 0.0837 µM | 0.0772 µM and 0.0578 µM | 2.61 µM and 1.3 µM | 0.29 µM and 0.261 µM | > 100 µM and 19.1 µM | 0.174 µM and 0.0745 µM | > 44.5 |  |  | > 100 µM and 12.5 µM | 11.6 µM and 4.09 µM | < 0.01 | 0.104 µM and 0.262 µM |  | 
4 | NS(=O)(=O)c1nnc(NC(=S)NC(=O)Nc2ccc(Cl)c(Cl)c2)s1 | 40.4 µM | 80.1 µM | 55.2 | > 100 | 42.3 | 87.6 µM | 53.9 µM | 39.1 µM | > 100 µM | 62.1 µM |  | 94.8 | 88 | 33.1 µM | > 100 µM |  |  |  |  | 
5 | O=[N+]([O-])c1cccc2nc3ccccc3c(NCCCCCNc3c4ccccc4nc4cccc([N+](=O)[O-])c34)c12 | 0.185 µM | 0.353 µM and 1.25 µM | 0.738 | 0.637 | 0.111 | 0.0429 µM | 0.0929 µM | 0.13 µM and 0.0322 µM | 0.0666 µM and 0.0332 µM | 1.25 µM and 1.14 µM | 0.164 µM |  | 0.285 | 0.303 µM and 0.307 µM | 0.598 µM |  |  | 0.08 µM | 0.0346 | 0.0351
6 | CCOC(=O)c1c(NC(=O)c2ccccc2)c(C#N)c2n1CCCCC2 | > 100 µM | > 100 µM | > 100 | > 100 | > 100 | > 100 µM | > 100 µM | > 100 µM | > 100 µM | > 100 µM | > 100 µM | > 100 |  | > 100 µM | > 100 µM |  |  |  |  | 
7 | Cc1nc2sc3cccc(Cl)c3n2c(=O)c1N=Nc1ccc(Cl)cc1 | > 100 µM | > 100 µM | > 100 | > 100 | > 100 | > 100 µM | > 100 µM | > 100 µM | > 100 µM | > 100 µM | > 100 µM | > 100 | > 100 |  | > 100 µM |  |  |  |  | 
